How the values were obtained:
Tubulin = assay: Inhibition of Tubulin polymerization after 20 minutes of administration at 30 degree Centigrade; type: functional, organism-based
CA46 = assay: Inhibits the growth of the human Burkitt lymphoma CA46 cell; type: functional, cell-based
[1] = biological target: Tubulin alpha chain (Sus scrofa) (UniProt P02550); details: at 5 µM
[2] = biological target: Tubulin alpha chain (Sus scrofa) (UniProt P02550); assay: Binding affinity of [3H]- colchicine (5.0 uM) to tubulin (1.0 uM, 0.1 mg/mL) was evaluated at concentration of 50 uM

Tubulin alpha chain (Sus scrofa), sequence (P02550 whole entry, looked up): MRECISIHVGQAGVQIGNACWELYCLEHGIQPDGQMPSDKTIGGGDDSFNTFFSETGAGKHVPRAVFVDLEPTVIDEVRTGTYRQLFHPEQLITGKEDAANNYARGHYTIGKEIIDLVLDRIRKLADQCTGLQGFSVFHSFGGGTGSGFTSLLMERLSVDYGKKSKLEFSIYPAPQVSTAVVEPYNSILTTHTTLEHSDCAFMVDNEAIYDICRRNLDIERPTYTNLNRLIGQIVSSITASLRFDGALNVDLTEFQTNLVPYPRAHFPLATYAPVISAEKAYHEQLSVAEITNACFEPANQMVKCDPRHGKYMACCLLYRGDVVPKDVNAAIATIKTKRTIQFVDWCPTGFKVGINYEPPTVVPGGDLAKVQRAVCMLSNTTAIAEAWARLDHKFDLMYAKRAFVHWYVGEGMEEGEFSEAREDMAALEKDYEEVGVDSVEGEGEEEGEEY

| Compound | IC50 (Tubulin) | IC50 (CA46) | inhibition [1] | inhibition [2] |
| --- | --- | --- | --- | --- |
| COc1cc2c(c(OC)c1OC)-c1ccc(SC)c(=O)cc1C(OC(=O)c1ccncc1)CC2 (centres undefined) [listing 1 of 2 here] | 0.97 µM | – | – | – |
| CCCC(=O)OC1CCc2cc(OC)c(OC)c(OC)c2-c2ccc(SC)c(=O)cc21 (centres undefined) | 1.5 µM | – | – | – |
| COc1cc2c(c(OC)c1OC)-c1ccc(SC)c(=O)cc1[C@@H](OC(C)=O)CC2 | – | 3.4 µM | 79% | – |
| COc1cc2c(c(OC)c1OC)-c1ccc(SC)c(=O)cc1C(OC(=O)c1ccccc1)CC2 (centres undefined) | 1.4 µM | – | – | – |
| COc1cc2c(c(OC)c1OC)-c1ccc(SC)c(=O)cc1[C@@H](O)CC2 | – | 2.8 µM | 85% | – |
| COc1cc2c(c(OC)c1OC)-c1ccc(SC)c(=O)cc1C(OC(=O)c1ccncc1)CC2 (centres undefined) [listing 2 of 2 here] | 1.1 µM | – | – | – |
| COc1cc2c(c(OC)c1OC)-c1ccc(SC)c(=O)cc1[C@H](OC(=O)C13CCC(C)(C(=O)O1)C3(C)C)CC2 (some centres undefined) | 17 µM | – | – | – |
| COc1cc2c(c(OC)c1OC)-c1ccc(SC)c(=O)cc1[C@H](O)CC2 | – | – | 16% | 73% |
| COc1cc2c(c(OC)c1OC)-c1ccc(SC)c(=O)cc1C(=O)CC2 [THIOCOLCHICONE] | 0.76 µM | 18 µM | 70% | – |
| COc1cc2c(c(OC)c1OC)-c1ccc(SC)c(=O)cc1[C@@H](OC(=O)c1cccnc1)CC2 | 0.76 µM | 27 µM | 65% | – |
| COc1cc2c(c(OC)c1OC)-c1ccc(SC)c(=O)cc1[C@H](OC(C)=O)CC2 | – | 40 µM | 11% | 74% |
| COc1cc2c(c(OC)c1OC)-c1ccc(SC)c(=O)cc1C(OC(=O)c1cccnc1)CC2 (centres undefined) | 0.88 µM | – | – | – |
| COc1cc2c(c(OC)c1OC)-c1ccc(SC)c(=O)cc1C(Br)CC2 (centres undefined) | 1.1 µM | – | – | – |
| CCCC(=O)O[C@H]1CCc2cc(OC)c(OC)c(OC)c2-c2ccc(SC)c(=O)cc21 | 0.85 µM | 29 µM | 66% | – |
| COc1cc2c(c(OC)c1OC)-c1ccc(SC)c(=O)cc1[C@@H](OC(=O)c1ccncc1)CC2 | 0.56 µM | 2.8 µM | 69% | – |
| COc1cc2c(c(OC)c1OC)-c1ccc(SC)c(=O)cc1[C@@H](OC(=O)C13CCC(C)(C(=O)O1)C3(C)C)CC2 (some centres undefined) | 1.4 µM | – | – | – |

Source: ChEMBL document CHEMBL1129977, “Antitumor agents. 172. Synthesis and biological evaluation of novel deacetamidothiocolchicin-7-ols and ester analogs as antitubulin agents” (J Med Chem, 1997)
